From ChEMBL document CHEMBL4052645, “Discovery of potent and efficacious pyrrolopyridazines as dual JAK1/3 inhibitors” (Bioorg Med Chem Lett, 2017) come the findings set out here.

The nature of data set [1]: Drug concentration in mouse after 24 hrs. It counts as ADME. Particulars: in vivo, read-out: Drug uptake.
Data set [2] concerns Mus musculus. The data set is described as follows: Antiarthritic activity in collagen-induced arthritis mouse model assessed as reduction in inflammation at 2 mg/kg, po qd measured up to 41 days. It counts as functional, organism-based.
Data set [3] concerns Mus musculus. The data set is described as follows: Antiarthritic activity in collagen-induced mouse model assessed as […] at 10 mg/kg, po qd up to 41 days. Format: functional, organism-based.
Data set [4] has as its system Mus musculus. The data set is described as follows: Toxicity in collagen-induced arthritis mouse model at 50 mg/kg, po qd. It counts as organism-based. Particulars: in vivo.
Data set [5] concerns the target Serine/threonine-protein kinase 26 (Homo sapiens) (UniProt Q9P289). The data set is described as follows: Inhibition of full lengthhuman MST4 (M1 to P416 residues) expressed in mammalian expression system assessed as residual activity at 50 nM by KINOMEscan assay relative to control.
For data set [6], the target named is Serine/threonine-protein kinase 10 (Homo sapiens) (UniProt O94804). The data set is described as follows: Inhibition of wild-type human partial length LOK (E16 to V314 residues) expressed in bacterial expression system assessed as residual activity at 50 nM by Kinomescan method relative to control.
Chain of Serine/threonine-protein kinase 10 (Homo sapiens) (O94804 whole entry, looked up, the tested form may be a part): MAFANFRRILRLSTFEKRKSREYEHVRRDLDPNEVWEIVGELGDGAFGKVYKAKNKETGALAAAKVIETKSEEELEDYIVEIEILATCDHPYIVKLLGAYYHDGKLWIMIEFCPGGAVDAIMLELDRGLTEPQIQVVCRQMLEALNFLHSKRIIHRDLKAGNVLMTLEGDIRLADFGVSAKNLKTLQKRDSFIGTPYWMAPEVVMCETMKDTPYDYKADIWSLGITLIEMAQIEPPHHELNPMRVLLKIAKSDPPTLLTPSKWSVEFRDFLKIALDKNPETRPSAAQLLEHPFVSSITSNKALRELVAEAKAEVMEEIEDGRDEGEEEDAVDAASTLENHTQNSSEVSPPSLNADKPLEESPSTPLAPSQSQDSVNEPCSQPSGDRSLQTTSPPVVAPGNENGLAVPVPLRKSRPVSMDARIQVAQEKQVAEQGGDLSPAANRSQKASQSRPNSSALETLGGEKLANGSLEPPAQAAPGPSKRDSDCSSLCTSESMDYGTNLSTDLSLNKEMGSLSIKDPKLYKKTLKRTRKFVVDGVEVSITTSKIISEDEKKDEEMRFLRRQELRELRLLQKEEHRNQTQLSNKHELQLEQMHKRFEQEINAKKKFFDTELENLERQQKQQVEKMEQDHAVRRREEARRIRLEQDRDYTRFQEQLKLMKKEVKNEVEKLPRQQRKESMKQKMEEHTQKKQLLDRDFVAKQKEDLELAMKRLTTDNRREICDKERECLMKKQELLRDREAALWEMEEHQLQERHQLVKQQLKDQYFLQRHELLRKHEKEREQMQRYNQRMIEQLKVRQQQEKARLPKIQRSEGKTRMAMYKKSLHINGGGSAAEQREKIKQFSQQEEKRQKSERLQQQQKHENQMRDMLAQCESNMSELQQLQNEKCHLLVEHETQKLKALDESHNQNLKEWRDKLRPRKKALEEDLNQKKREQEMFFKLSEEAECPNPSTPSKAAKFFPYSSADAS
Data set [7] deals with Interleukin-1 receptor-associated kinase 3 (Homo sapiens) (UniProt Q9Y616). The data set is described as follows: Inhibition of wild-type human partial length IRAK3 (V147 to E596 residues) expressed in bacterial expression system assessed as residual activity at 50 nM by Kinomescan method relative to control.
Chain of Interleukin-1 receptor-associated kinase 3 (Homo sapiens) (Q9Y616 whole entry, the tested form may be a part): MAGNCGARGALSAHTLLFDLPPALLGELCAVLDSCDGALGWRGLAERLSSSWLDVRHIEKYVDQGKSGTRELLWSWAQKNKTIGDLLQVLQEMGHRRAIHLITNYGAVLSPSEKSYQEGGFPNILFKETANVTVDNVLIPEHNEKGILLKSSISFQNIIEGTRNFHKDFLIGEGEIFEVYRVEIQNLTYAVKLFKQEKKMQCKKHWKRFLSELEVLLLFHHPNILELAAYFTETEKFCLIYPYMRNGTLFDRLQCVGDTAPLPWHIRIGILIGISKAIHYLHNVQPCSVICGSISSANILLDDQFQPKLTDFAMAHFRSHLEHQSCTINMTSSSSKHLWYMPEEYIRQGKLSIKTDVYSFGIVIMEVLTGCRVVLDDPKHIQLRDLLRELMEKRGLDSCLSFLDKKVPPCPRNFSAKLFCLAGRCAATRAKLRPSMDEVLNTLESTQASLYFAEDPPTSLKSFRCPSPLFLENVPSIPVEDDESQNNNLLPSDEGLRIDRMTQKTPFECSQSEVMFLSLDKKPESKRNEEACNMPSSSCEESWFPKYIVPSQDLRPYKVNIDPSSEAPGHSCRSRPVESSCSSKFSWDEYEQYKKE
For data set [8], the target named is Tyrosine-protein kinase HCK (Homo sapiens) (UniProt P08631). The data set is described as follows: Inhibition of wild-type human full length HCK (M22 to P526 residues) expressed in bacterial expression system assessed as residual activity at 50 nM by Kinomescan method relative to control.
Chain of Tyrosine-protein kinase HCK (Homo sapiens) (P08631 2-526 limits assumed): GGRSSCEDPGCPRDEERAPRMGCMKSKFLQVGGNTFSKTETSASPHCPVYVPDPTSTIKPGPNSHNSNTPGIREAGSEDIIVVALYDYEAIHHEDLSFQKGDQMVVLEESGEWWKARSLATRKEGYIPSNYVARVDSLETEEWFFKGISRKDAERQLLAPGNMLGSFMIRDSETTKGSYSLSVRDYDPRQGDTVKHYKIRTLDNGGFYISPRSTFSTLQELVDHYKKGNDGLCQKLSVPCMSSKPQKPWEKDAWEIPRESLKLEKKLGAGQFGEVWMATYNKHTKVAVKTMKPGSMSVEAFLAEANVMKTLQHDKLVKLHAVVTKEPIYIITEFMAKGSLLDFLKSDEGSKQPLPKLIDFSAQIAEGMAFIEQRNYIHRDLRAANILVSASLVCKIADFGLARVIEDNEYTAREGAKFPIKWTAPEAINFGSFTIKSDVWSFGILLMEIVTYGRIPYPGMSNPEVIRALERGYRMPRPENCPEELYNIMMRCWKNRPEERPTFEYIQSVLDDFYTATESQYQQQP
In data set [9] the target is Serine/threonine-protein kinase Nek1 (Homo sapiens) (UniProt Q96PY6). The data set is described as follows: Inhibition of wild-type human partial length NEK1 (M1 to K278 residues) expressed in bacterial expression system assessed as residual activity at 50 nM by Kinomescan method relative to control.
Chain of Serine/threonine-protein kinase Nek1 (Homo sapiens) (Q96PY6 whole entry, the tested form may be a part): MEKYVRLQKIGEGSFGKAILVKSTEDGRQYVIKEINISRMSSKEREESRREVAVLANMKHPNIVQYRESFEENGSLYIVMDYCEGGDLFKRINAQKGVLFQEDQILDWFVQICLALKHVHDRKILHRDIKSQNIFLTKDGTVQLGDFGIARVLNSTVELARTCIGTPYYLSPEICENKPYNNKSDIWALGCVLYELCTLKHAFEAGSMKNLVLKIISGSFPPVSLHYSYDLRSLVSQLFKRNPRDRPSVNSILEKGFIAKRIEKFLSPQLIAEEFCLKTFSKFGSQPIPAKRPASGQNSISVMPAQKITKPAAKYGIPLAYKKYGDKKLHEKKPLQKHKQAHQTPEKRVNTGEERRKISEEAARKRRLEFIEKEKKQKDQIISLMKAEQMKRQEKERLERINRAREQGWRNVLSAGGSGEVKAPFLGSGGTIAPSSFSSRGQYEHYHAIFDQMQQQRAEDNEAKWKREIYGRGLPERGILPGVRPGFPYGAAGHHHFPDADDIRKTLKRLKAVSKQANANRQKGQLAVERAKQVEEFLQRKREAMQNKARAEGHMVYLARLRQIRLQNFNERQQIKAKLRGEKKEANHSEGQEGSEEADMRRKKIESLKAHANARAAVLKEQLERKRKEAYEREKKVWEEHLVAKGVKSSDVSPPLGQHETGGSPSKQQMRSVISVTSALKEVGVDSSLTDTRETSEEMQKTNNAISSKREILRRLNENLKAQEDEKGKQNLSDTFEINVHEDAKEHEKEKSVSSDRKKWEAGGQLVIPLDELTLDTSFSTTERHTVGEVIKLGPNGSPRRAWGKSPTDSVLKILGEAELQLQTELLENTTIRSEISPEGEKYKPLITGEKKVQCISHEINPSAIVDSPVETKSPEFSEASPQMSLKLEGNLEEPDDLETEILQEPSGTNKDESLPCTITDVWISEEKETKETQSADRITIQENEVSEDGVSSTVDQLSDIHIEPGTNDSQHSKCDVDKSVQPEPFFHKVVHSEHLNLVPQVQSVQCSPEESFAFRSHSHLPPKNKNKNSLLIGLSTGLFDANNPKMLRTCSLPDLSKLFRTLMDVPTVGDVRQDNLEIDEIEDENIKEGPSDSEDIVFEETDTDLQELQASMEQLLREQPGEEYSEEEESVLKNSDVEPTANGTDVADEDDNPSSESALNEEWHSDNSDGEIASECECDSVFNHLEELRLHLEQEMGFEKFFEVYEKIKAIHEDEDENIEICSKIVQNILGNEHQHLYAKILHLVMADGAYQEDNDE
In data set [10] the target is Proto-oncogene tyrosine-protein kinase receptor Ret (Homo sapiens) (UniProt P07949). The data set is described as follows: Inhibition of wild-type human partial length RET (E713 to D1014 residues) expressed in bacterial expression system assessed as residual activity at 50 nM by Kinomescan method relative to control.
Chain of Proto-oncogene tyrosine-protein kinase receptor Ret (Homo sapiens) (P07949 whole entry, the tested form may be a part): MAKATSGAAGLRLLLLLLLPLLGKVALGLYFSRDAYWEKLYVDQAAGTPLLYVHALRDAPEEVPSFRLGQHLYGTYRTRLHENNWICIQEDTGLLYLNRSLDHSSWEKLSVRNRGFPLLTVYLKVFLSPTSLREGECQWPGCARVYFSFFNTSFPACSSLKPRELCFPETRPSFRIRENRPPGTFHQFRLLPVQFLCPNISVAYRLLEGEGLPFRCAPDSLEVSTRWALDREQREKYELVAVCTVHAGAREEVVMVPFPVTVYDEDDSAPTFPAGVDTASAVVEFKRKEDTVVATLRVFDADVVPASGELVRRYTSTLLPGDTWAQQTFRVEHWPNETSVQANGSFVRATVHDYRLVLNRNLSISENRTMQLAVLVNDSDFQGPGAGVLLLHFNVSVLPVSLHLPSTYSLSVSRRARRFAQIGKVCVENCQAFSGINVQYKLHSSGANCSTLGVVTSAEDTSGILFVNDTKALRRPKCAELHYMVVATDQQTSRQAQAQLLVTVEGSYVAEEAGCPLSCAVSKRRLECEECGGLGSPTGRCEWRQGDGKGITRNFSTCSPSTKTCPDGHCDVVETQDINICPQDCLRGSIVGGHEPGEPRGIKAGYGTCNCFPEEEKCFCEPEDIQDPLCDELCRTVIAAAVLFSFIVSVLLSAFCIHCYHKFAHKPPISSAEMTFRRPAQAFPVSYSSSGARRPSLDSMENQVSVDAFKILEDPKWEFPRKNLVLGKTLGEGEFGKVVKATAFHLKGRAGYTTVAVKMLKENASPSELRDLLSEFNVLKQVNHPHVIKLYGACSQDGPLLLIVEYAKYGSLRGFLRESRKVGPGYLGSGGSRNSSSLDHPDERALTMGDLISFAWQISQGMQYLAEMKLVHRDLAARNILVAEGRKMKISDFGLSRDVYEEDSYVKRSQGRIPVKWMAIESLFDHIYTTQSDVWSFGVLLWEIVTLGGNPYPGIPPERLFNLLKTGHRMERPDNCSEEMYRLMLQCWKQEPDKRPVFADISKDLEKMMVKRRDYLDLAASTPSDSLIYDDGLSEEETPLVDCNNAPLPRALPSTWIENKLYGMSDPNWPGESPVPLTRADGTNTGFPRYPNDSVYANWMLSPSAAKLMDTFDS
The species entered for data set [11] is Mus musculus. The data set is described as follows: animal or person. Particulars: Balb/c, 24 h.
Data set [12] concerns the target Voltage-gated inwardly rectifying potassium channel KCNH2 (Homo sapiens, UniProt Q12809). The data set is described as follows: Inhibition of human ERG by flux-based assay.
The nature of data set [13]: Protein binding in mouse plasma at 10 mg/kg, po. Format: ADME, organism-based. Particulars: read-out: PPB (converted).
Data set [14] in a line: Cmax in mouse at 10 mg/kg, po after 24 hrs. Format: ADME, organism-based. Further details: dose 10 mg/kg, route oral. Conditions: in vivo.
Data set [15] in a line: Cmin in mouse at 10 mg/kg, po after 24 hrs. Format: ADME, organism-based. Particulars: in vivo, read-out: Cmin.
A short description of data set [16]: Aqueous solubility of compound at pH 6.5. It counts as physicochemical.
A short description of data set [17]: AUC in BALB/c mouse at 10 mg/kg, po. Format: ADME, organism-based. Conditions: in vivo.
A short description of data set [18]: Clearance in BALB/c mouse at 2 mg/kg, iv. Format: ADME, organism-based. Particulars: in vivo.
The nature of data set [19]: Tmax in Sprague-Dawley rat at 10 mg/kg, po. It counts as ADME, organism-based. Particulars: in vivo.
Data set [20] can be described thus: Oral bioavailability in Sprague-Dawley rat at 10 mg/kg. Format: ADME, organism-based. Particulars: in vivo.
Data set [21] is described as follows: Half life in Sprague-Dawley rat at 2 mg/kg, iv. Format: ADME, organism-based. Conditions: in vivo.
Data set [22] is described as follows: Clearance in Sprague-Dawley rat at 2 mg/kg, iv. Format: ADME, organism-based. Conditions: in vivo.
In a further data set the test system is Rattus norvegicus. The data set is described as follows: Toxicity in rat assessed as mortality at 200 mg/kg. It counts as organism-based. Particulars: in vivo.
Data set [23] has as its target Rho-associated protein kinase 1 (Homo sapiens, UniProt Q13464). The data set is described as follows: Inhibition of Rho-associated protein kinase 1 (unknown origin).
Data set [24] addresses Rho-associated protein kinase 2 (Homo sapiens, UniProt O75116). The data set is described as follows: Inhibition of Rho-associated protein kinase 2 (unknown origin).
Data set [25] has as its target Ephrin type-B receptor 2 (Homo sapiens) (UniProt P29323). The data set is described as follows: Inhibition of wild-type human partial length EPHB2 (I597 to L902 residues) expressed in bacterial expression system assessed as residual activity at 50 nM by Kinomescan method relative to control.
The target in data set [26] is Tyrosine-protein kinase Fgr (Homo sapiens) (UniProt P09769). The data set is described as follows: Inhibition of wild-type human partial length FGR (L233 to T529 residues) expressed in bacterial expression system assessed as residual activity at 50 nM by Kinomescan method relative to control.
Data set [27] has as its target Mitogen-activated protein kinase kinase kinase 1 (Homo sapiens) (UniProt Q13233). The data set is described as follows: Inhibition of wild-type human partial length MAP3K1 (L1202 to W1512 residues) expressed in mammalian expression system assessed as residual activity at 50 nM by Kinomescan method relative to control.
In data set [28] the target is Myosin light chain kinase family member 4 (Homo sapiens) (UniProt Q86YV6). The data set is described as follows: Inhibition of wild-type human partial length SGK085 (V79 to S380 residues) expressed in bacterial expression system assessed as residual activity at 50 nM by Kinomescan method relative to control.
For data set [29], the target named is Dual specificity tyrosine-phosphorylation-regulated kinase 1B (Homo sapiens) (UniProt Q9Y463). The data set is described as follows: Inhibition of wild-type human full length DYRK1B (M1 to S629 residues) expressed in bacterial expression system assessed as residual activity at 50 nM by Kinomescan method relative to control.
For data set [30], the target named is Tyrosine-protein kinase JAK1 (Homo sapiens, UniProt P23458). The data set is described as follows: Inhibition of wild-type human partial length JAK1 JH2 pseudokinase domain (R537 to D855 residues) expressed in mammalian expression system assessed as residual activity at 50 nM by Kinomescan method relative to control.
The target in data set [31] is Serine/threonine-protein kinase NIM1 (Homo sapiens) (UniProt Q8IY84). The data set is described as follows: Inhibition of wild-type human partial length NIM1 (Q44 to N355 residues) expressed in mammalian expression system assessed as residual activity at 50 nM by Kinomescan method relative to control.
Data set [32] has as its target Serine/threonine-protein kinase PAK 6 (Homo sapiens) (UniProt Q9NQU5). The data set is described as follows: Inhibition of wild-type human partial length PAK6 (N298 to C681 residues) expressed in bacterial expression system assessed as residual activity at 50 nM by Kinomescan method relative to control.
Data set [33] has as its system Casein kinase I isoform alpha-like. The data set is described as follows: Inhibition of CK1A2 (unknown origin) assessed as residual activity at 50 nM by Kinomescan method relative to control. Particulars: Homo sapiens.
Data set [34] concerns Mitogen-activated protein kinase kinase kinase 12. The data set is described as follows: Inhibition of wild-type human full length DLK (M1 to P859 residues) expressed in mammalian expression system assessed as residual activity at 50 nM by Kinomescan method relative to control.
For data set [35], the system named is Ribosomal protein S6 kinase alpha-2. The data set is described as follows: Inhibition of wild-type human partial length N-terminal RSK3 kinase domain 1 (M1 to Q385 residues) expressed in bacterial expression system assessed as residual activity at 50 nM by Kinomescan method relative to control.

Molecules are shown by their SMILES. ≈ marks a conversion by molar mass, not a printed value. Calls of active or inactive are those of the source. The rule behind the calls is not given here.

Chain of Serine/threonine-protein kinase 26 (Homo sapiens) (Q9P289 2-416 limits assumed): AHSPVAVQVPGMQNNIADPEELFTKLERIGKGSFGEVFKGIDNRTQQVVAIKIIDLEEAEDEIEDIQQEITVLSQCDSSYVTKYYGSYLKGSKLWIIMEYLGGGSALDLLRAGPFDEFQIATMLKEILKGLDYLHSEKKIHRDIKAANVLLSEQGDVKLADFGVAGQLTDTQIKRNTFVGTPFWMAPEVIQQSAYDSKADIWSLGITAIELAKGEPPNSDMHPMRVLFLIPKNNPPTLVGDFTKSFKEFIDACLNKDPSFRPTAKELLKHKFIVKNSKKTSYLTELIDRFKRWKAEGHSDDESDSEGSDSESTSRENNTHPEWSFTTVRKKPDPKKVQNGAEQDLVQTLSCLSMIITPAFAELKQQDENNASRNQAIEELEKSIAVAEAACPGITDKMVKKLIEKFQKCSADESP

`CC1(C)[C@H](Nc2c(C(N)=O)cnn3cc(-c4ccccc4)cc23)CC[C@]1(C)N`: the concentration at 24 h in [1] turned out to be 230 nM. The outcome in the data set with Mus musculus [2] was inactive. Besides, in the data set on Mus musculus [3], the outcome was Active. Also, the Activity entry was “Toxic” in the data set on Mus musculus [4]; 12% in [5]; 48% in data set [6]; 66% in data set [7]; 100% in [8]; 100% in data set [9]. The Activity in data set [10] was found to be 100%. For the same molecule, the IC50 in the data set filed under Mus musculus [11] turned out to be 270 nM.
For the molecule `COc1ccc(-c2cc3c(N[C@@H]4CC[C@](C)(N)C4(C)C)c(C(N)=O)cnn3c2)cn1`, the figures for the 50% inhibitory concentration (IC50) in data set [12], in data set [23] and in data set [24] were over 80000 nM, 95 nM and 43 nM, respectively. Also, the fraction unbound in data set [13] is 0.07. The Cmax in data set [14] came out at 1100 nM. Moreover, in [15], the concentration at 24 h was found to be 300 nM. Moreover, the concentration in solution in [16] (solubility) was 79 µg/mL (≈ 193 µM). Besides, the AUC in data set [17] was 17.9 µM·h. In addition, the clearance in data set [18] turned out to be 16.7 mL/min/kg; in [22], 14.1 mL/min/kg. Further, the Tmax in data set [19] was found to be 7.3 h. The molecule further had a bioavailability in [20] of 44%. Further, the half-life in data set [21] is 9.8 h. The Activity result in the data set with Rattus norvegicus was “Toxic”; in [5] it was 23%; in data set [6], 75%; in [7], 100%; in data set [25], 100%; in data set [26], 99%. Also, the Activity is 98% in data set [27]; 94% in data set [28]; 100% in data set [29]; 78% in [30]; 90% in data set [31]; 87% in data set [32]. Moreover, the Activity turned out to be 100% in [8]; 92% in [9]; 92% in data set [10]; 97% in data set [33]; 81% in [34]; 87% in data set [35].
